As usually defined, the pEC50 is the EC50 on a negative log10 scale, so that one unit is a factor of ten.

In this assay the target is T1, EDG-1/S1P1 receptor (Homo sapiens, UniProt P21453).
T1 construct: expressed in transfected cells; host or cells: U2OS (human osteosarcoma), EDG-1 Transfluor U20S WT Clone #37
As to the kind of experiment: In Vitro Cell Based Receptor Activation Assay-Transfluor Assay. The following applies: inhibition of S1P-stimulated (375 nM or 750 nM) beta-arrestin GFP relocalization; EDG-1 Transfluor U20S WT Clone #37 cells. The text has this: The following assay can be used to measure the effects of the compounds of the present invention as S1P1/Edg1 inhibitors.
This cell-based assay was designed to assess the ability of small molecule antagonists to inhibit activation of the GPCR S1P1 in the presence of its cognate ligand S1P. The assay used technology initially developed by Norak Biosciences (Xsira Pharmaceutical) and presently owned by Molecular Devices. A human osteogenic sarcoma (U20S) cell line overexpressing the EDG-1/S1P1) receptor as well as a beta-arrestin/green fluorescent protein (GFP) construct hereafter termed EDG-1 Transfluor U20S WT Clone #37 was employed.
Using a high content screening approach (Cellomics Arrayscan), receptor activity was measured by assessment of the relocalization of beta-arrestin GFP in response to stimulation of EDG-1 by SIP. Specifically, EDG-1 Transfluor U20S WT Clone #37 cells were plated at a density of 6250 cells in 40 μL medium per well in 384 well plastic bottomed microtiter plates (BD Falcon) and incubated overnight at 37° C./5% CO2. Prior to screening, compounds were dissolved in 100% dimethyl sulfoxide (DMSO) to a final stock concentration of 10 mM. […] Plates were then sealed and analysed on the Cellomics Arrayscan using the GPCR signalling algorithm. EC50 values were then calculated using IDBS ActivityBase software.

Each structure is given as a SMILES string. pEC50: −log10 of the molar value.

`CCn1c(C(C)NS(=O)(=O)c2ccc(Cl)cc2)nnc1C(F)(F)F` (centres unmarked) [Example 11, 4-Chloro-N-[1-(4-ethyl-5-trifluoromethyl-4H-[1,2,4]triazol-3-yl)-ethyl]-benzenesulfonamide] had a pEC50 of 6.17.

Regarding `CCn1c(OC)nnc1[C@@H](Cc1cccnc1)NS(=O)(=O)c1ccc(Cl)cc1` [Example 16, 4-Chloro-N-[(R)-1-(4-ethyl-5-methoxy-4H-[1,2,4]triazol-3-yl)-2-pyridin-3-yl-ethyl]benzenesulfonamide], the pEC50 was 6.88.
